Measured values taken from patent US20050249665A1, “Urea-, glycerate- and, hydroxyamide-headed hydrocarbon chain lyotropic phases forming surfactants” (DBL Australia Pty Ltd., priority 2002, published 2005).
Where “and” joins values, the source holds several entries; their conditions need not be identical. Identical values can stand only once. Entries after “also recorded” stand apart in the source; their conditions may differ. Like-named read-outs stand apart in the source and are kept apart here.

How the values were obtained:
Assay type in all cases: physicochemical
[1] = Flooding experiment: lyotropic phase formed in excess water at 40° C.; further: key: Hll denotes reverse hexagonal phase; details: sample maintained at 40° C., crossed polarised light, 200x
Experimental: (§1) Preliminary assessment of the phase behaviour of a selected compound was conducted using the ‘flooding’ technique. The flooding technique involves placing the compound between a coverslip and microscope slide and introducing water to the sample to establish a water concentration gradient through the sample. […] If the experiment is conducted on a hot stage, the temperature range over which the particular lyotropic phases exist can also be determined. The phase behaviour can be observed under normal or cross-polarised light using an optical microscope. […] For the purpose of the present invention it was especially useful for identifying which phase was present at the boundary with excess water.
For the surfactant to be useful it preferably forms a viscous lyotropic phase in the presence of excess water. The lyotropic phase formed by the surfactant in excess water was determined by flooding experiments, in which a small amount of lipid (typically 5 mg) is placed between a glass microscope slide and coverslip and water introduced to the sample by capillary action, with the sample maintained at 40° C. by means of a hot stage. Observation under crossed polarised light at 200× magnification allows identification of the phase formed by the visible birefringent texture, or lack thereof.

[2] = Water content of saturated lyotropic phase by Karl Fisher titration; details: 300 mg surfactant in excess water, equilibrated at 40° C.; mean of three samples ± SD
Experimental: The mass of water incorporated in the lyotropic phase was determined by preparing a 300 mg sample of surfactant in excess water, equilibrating at 40° C., and testing the water content of the lyotropic phase by Karl Fisher titration. Values reported are the mean of three separate samples i standard deviation, unless otherwise indicated.

[3] = Lyotropic behaviour: flooding technique on hot stage, optical microscopy under crossed polarised light
Experimental: as §1

[4] = flooding with water, temperature as stated per example

Phase formed in excess water [1]	% water (w/w) in saturated lyotropic phase [2]	Lyotropic phase formed at the interface with water [3, 4]	Temperature at which the hexagonal phase reappears on cooling ([3]; flooding, cooling)	Temperature at which the hexagonal phase begins to melt ([3]; flooding, heating)	Temperature at which the hexagonal phase is completely melted / sample completely isotropic ([3]; flooding, heating)	Temperature at which the lyotropic phase forms / begins to form on contact with water ([3]; flooding, heating)	Temperature at which the isotropic cubic phase reforms on cooling ([3]; flooding, cooling)	Temperature at which the isotropic cubic phase has disappeared ([3]; flooding, heating)	SMILES	Lyotropic phase formed at the interface with water [3]	Temperature at which the lyotropic phase forms / begins to form on contact with water [3]
Hll	24.7 ± 0.7 % (w/w)								CC(C)CCCC(C)CCCC(C)CCOC(=O)C(O)CO (centres unmarked) [2,3-Dihydroxypropionic acid 3,7,11-trimethyl-dodecyl ester]		
Hll	23.1 ± 3.2 % (w/w)								CC(C)CCCC(C)CCCC(C)CCCC(C)CC(=O)OCC(O)CO (centres unmarked) [3,7,11,15-tetramethyl-hexadecanoic acid 1-glycerol ester]		
Hll		reverse hexagonal phase	51.1 °C	50.9 °C	58.1 °C	20 °C			CC(C)CCCC(C)CCCC(C)CCCC(C)CCN(CCO)C(N)=O (centres unmarked) [Example 1, 1-(3,7,11,15tetramethyl-hexadecyl)-1-(2-hydroxyethyl) urea]		
Hll	14.3 ± 4.6 % (w/w)	reverse hexagonal phase	44.1 °C	40.4 °C	58 °C and 57.3 °C	below 8 °C			CC(C)CCCC(C)CCCC(C)CCCC(C)CCNC(=O)NCCO (centres unmarked) [Example 2, 1-(3,7,11,15-tetramethyl-hexadecyl)-3-(2-hydroxyethyl) urea]		
Hll	28.4 ± 2.3 % (w/w)	reverse hexagonal phase		72.6 °C	82.1 °C	25 °C			CC(C)CCCC(C)CCCC(C)CCCC(C)CCNC(N)=O (centres unmarked) [Example 3, 3,7,11,15Tetramethyl-hexadecyl urea]		
Hll	8.1 ± 2.5 % (w/w)	reverse hexagonal phase		55 °C	> 70 °C	30 °C			CC(C)CCCC(C)CCCC(C)CCNC(N)=O (centres unmarked) [Example 4, 3,7,11-Trimethyl-dodecyl urea]		
Hll	16.8 ± 3.9 % (w/w)		77 °C	65 °C	80 °C	30 °C	40 °C	70 °C	CCCCCCCC/C=C\CCCCCCCCOC(=O)C(O)CO (centres unmarked) [Example 5, 2,3-Dihydroxypropionic acid octadec-9-enyl ester]		
Hll	28.7 ± 2.5 % (w/w)	reverse hexagonal phase		~40 °C	48 °C	room temperature			CC(C)CCCC(C)CCCC(C)CCCC(C)CCOC(=O)C(O)CO (centres unmarked) [Example 6, 2,3-Dihydroxypropionic acid 3,7,11,15-tetramethyl-hexadecyl ester]		
		hexagonal phase			107 °C	85 °C			CCCCCCCC/C=C\CCCCCCCCNC(=O)NC(N)=O [Example 9, cis-octadec-9-enyl biuret]		
		reverse hexagonal phase			110 °C	61 °C			CCCCCCCC/C=C\CCCCCCCCNC(N)=O [Example 10, cis-octadec-9enyl urea]		
		reverse hexagonal phase			92-93 °C	53 °C			CCCCC/C=C\C/C=C\CCCCCCCCNC(N)=O [Example 11, cis, cis-octadec-9,12-dienyl urea]		

SMILES	Phase formed in excess water [1]	% water (w/w) in saturated lyotropic phase [2]	Lyotropic phase formed at the interface with water [3, 4]	Temperature at which the hexagonal phase reappears on cooling ([3]; flooding, cooling)	Temperature at which the hexagonal phase begins to melt ([3]; flooding, heating)	Temperature at which the hexagonal phase is completely melted / sample completely isotropic ([3]; flooding, heating)	Temperature at which the lyotropic phase forms / begins to form on contact with water ([3]; flooding, heating)	Temperature at which the isotropic cubic phase reforms on cooling ([3]; flooding, cooling)	Temperature at which the isotropic cubic phase has disappeared ([3]; flooding, heating)	Lyotropic phase formed at the interface with water [3]	Temperature at which the lyotropic phase forms / begins to form on contact with water [3]
CC(C)CCCC(C)CCCC(C)CCCC(C)CC(=O)NC(C)(CO)CO (centres unmarked) [Example 7, 3,7,11,15-tetramethyl-hexadecanoic acid (1,1-bis-hydroxymethyl-ethyl)-amide]			isotropic phase; also recorded: hexagonal phase		25.5 °C	26.7 °C	10-15 °C				
CCCCCCCC/C=C\CCCCCCCCNC(=O)NCCO [Example 8, 1-(2-Hydroxyethyl)-3-(cis-octadec-9-enyl) urea]						~67 °C				isotropic phase	59.5 °C
